pKi: −log10 of the molar value. Like-named read-outs stand apart in the source and are kept apart here. Values belong to the molecule of their own block, whether it stands above or below them.
Legend:
PPARγ [1] = biological target: T1, PPARγ (Homo sapiens, UniProt P37231); assay: Membrane-bound PPARγ binding assay
T1 sequence (P37231 1-505): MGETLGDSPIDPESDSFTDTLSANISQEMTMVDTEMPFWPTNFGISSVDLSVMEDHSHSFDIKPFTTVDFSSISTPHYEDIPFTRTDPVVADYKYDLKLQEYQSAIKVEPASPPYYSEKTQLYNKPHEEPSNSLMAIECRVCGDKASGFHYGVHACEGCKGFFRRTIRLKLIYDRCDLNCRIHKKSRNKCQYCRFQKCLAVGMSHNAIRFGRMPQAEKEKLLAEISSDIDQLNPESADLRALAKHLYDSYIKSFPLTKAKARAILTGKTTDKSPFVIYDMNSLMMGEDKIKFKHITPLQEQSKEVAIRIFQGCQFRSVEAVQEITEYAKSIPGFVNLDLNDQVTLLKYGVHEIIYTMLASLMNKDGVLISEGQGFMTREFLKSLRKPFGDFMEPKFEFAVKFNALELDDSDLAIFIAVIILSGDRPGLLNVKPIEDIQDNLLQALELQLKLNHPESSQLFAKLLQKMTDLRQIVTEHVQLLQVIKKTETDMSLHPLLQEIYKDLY
Description: The dose-related increase of PPRE reporter activity by genistein was also observed when a luciferase reporter construct containing three copies of a consensus PPRE inserted in front of a minimal thymidine kinase promoter. To determine whether genistein activates PPARγ through direct interaction with this receptor, we performed membrane-bound PPARγ binding assay.

PPARγ [2] = biological target: T2, PPARγ (Mus musculus, UniProt P37238); conditions: cited from earlier work; for PPARγ binding and activation: may act as allosteric effectors
T2 construct: host or cells: mouse macrophages
T2 sequence (P37238 1-505): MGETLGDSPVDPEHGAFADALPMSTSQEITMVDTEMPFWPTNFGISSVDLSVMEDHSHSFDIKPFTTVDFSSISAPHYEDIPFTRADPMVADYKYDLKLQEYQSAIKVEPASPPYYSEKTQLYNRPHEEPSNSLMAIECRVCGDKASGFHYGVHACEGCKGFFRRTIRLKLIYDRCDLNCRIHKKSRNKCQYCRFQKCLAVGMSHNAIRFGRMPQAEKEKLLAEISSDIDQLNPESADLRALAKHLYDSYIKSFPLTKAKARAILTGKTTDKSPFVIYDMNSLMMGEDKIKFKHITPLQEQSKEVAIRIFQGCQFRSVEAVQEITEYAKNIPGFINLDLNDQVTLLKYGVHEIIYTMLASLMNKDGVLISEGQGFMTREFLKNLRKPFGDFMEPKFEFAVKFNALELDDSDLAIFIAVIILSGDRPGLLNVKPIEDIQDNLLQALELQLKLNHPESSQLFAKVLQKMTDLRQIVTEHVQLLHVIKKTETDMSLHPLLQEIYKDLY

3T3-L1 = conditions: cited from earlier work; for proliferation of preadipocytes: time- and dose-dependent
[3] = system: human bone marrow cell cultures; assay: Osteogenesis in human bone marrow cell cultures; type: cell-based
Method: (§1) Similar stimulatory and inhibitory effects of genistein on bone formation were also observed in mouse and human bone marrow cell cultures. Like in KS483 cells, the stimulatory effects on ALP activity and Ca deposition in mouse bone marrow cultures occurred at concentrations between 0.1 μM and 10 μM, whereas the inhibitory effects were also found at the concentrations of 25 μM or higher. In human bone marrow cell cultures, the stimulatory effects was found at 0.001 μM, whereas the inhibitory effects were observed above 4 μM.

[4] = dose 8 mg/kg body weight; cited from earlier work
[5] = system: ovariectomised, lactating rats; conditions: cited from earlier work
p42 and p44 MAPK = assay: Western blot of p42 and p44 MAPK activity; type: cell-based
Description: It has been shown that phosphorylation of PPARγ by p42 and p44 mitogen activated protein kinase (MAPK) regulates PPARγ activity. We therefore performed western blot to test whether genistein at the micromolar concentrations inhibit p42 and p44 MAPK activity. […] An inhibition of p42 and p44 vMAPK activity is likely to potentiate PPARγ activity.

KS483 cells = assay: Adipogenesis (adipocyte numbers) in KS483 cells; type: cell-based; conditions: KS483 cells treated from day 1 onwards
Description: (§2) These inhibitory and stimulatory effects of genistein on adipogenesis in KS483 cells were further confirmed by mRNA expression of the adipocyte markers, PPARγ2, adipocyte protein 2 (aP2) and lipoprotein lipase (LPL). Adipogenic responses of mouse bone marrow cells to different doses of genistein were obtained.

[6] = system: estrogen receptors (ER's); assay: In vitro model, summary: activation of estrogen receptors; type: cell-based; conditions: leads to stimulation of osteogenesis
mouse bone marrow cells = assay: Adipogenesis (adipocyte numbers) in mouse bone marrow cultures; type: cell-based
Description: as §2

[7] = system: osteogenesis and adipogenesis; assay: In vitro model, summary: osteogenesis stimulated and adipogenesis inhibited; type: cell-based; conditions: low plasma concentrations, ER mediated
Description: (§3) Despite the large number of prior art publications that deal with the favourable effect of genistein on e.g. osteogenesis and/or adipogenesis, it has not been recognized before that it is crucial to avoid that plasma genistein levels reach a level that is sufficient to activate the PPARγ receptor in order to prevent inhibition of osteoblast activity and differentiation and to prevent stimulation of adipogenesis. As a matter of fact some of these publications recommend genistein dosages and plasma levels that according to the inventors' findings will produce significant adverse results. The inventors have developed a highly reproducible and sensitive in vitro model that has allowed them to discover that the effect of genistein components on e.g. osteogenesis and adipogenesis is biphasic, i.e. at plasma genistein levels above about 0.02 μM estrogen receptors (ER's) may be activated, leading to stimulation of osteogenesis, whilst at plasma genistein levels above about 4 μM the PPARγ receptor is activated, which triggers adipogenesis. By maintaining the plasma genistein levels at a level where the estrogen receptors are continuously activated, whilst at the same time avoiding activation of the PPARγ receptor, disorders such as osteoporosis and obesity may effectively be treated. […] These effects are mediated through the ER's.

PPARγ [8] = biological target: T1, PPARγ; assay: In vitro model, summary: activation of and binding to PPARγ; type: cell-based; conditions: triggers adipogenesis
Description: as §3
At the same time the adipogenesis increases. […]

KS 483 cells = assay: Osteogenesis in KS 483 cells (ALP activity, nodule formation, Ca deposition, osteoblastic marker mRNA); type: cell-based
Method: KS 483 cells were continuously treated for 21 days with various concentrations of genistein from day one onwards. Genistein had clear biphasic effects on osteogenesis. The stimulatory effects of genistein on alkaline phosphatase (ALP) activity, nodule formation and Ca deposition were found in the range of 0.1 μM to 10 μM, with a maximal effect at 1 μM. In contrast, the inhibitory effects of genistein on ALP activity, nodule formation and Ca deposition occurred at concentrations of 25 μM or higher.

3T3-L1 cels = conditions: cited from earlier work
[9] = system: mouse bone marrow cell cultures; assay: Osteogenesis in mouse bone marrow cell cultures; type: cell-based
Method: as §1

[10] = system: human bone marrow cultures; assay: Adipogenesis (adipocyte numbers) in human bone marrow cultures; type: cell-based
human PPARγ2 = biological target: T3, human PPARγ2 (Homo sapiens, UniProt P37231); assay: PPRE luciferase reporter in KS483 cells with human PPARγ2 expression plasmid; type: cell-based
T3 construct: expressed in transfected cells; host or cells: KS483 cells
T3 sequence (P37231 1-505): T1 sequence (P37231 1-505)
Description: (§4) KS483 cell were transiently transfected with a luciferase reporter construct containing two copies of a consensus estrogenic receptor responsive element (ERE) inserted in front of TATA or five copies of a consensus PPARy responsive element (PPRE) inserted in front of TATA or empty TATA-luciferase reporter along with expression plasmids encoding human PPARγ2.
To determine whether genistein activates PPARγ through direct interaction with this receptor, we performed membrane-bound PPARγ binding assay.

[11] = system: estrogenic receptor responsive element (ERE); assay: ERE luciferase reporter in transiently transfected KS483 cells; type: cell-based
Method: as §4, with “PPARγ2. […] Similarly, a dose-related increase of PPRE reporter activity was found in the range of 1 μM to 50 μM.” for “PPARγ2.”
It is also possible that an activation of PPARγ down regulated transcriptional activity of estrogen, i.e. there is cross-talk between ER's and PPARγ. […] Ligand concentration thus plays a crucial role in determining the degree of activation of ER's and PPARγ.

[12] = cited from earlier work
[13] = 61.7 μmole genistein per kg bodyweight per day

pKi (PPARγ [1]): 5.38
SMILES: CCCc1c(OCCCCc2nnn[nH]2)ccc(C(C)=O)c1O [LY 171883, reference compound]

SMILES: O=c1c(O)c(-c2ccc(O)cc2)oc2cc(O)cc(O)c12 [kaempferol]
PPARγ binding and activation (PPARγ [2]): able to bind and activate PPARγ

SMILES: O=c1cc(-c2ccc(O)cc2)oc2cc(O)cc(O)c12 [apigenin]
PPARγ binding and activation (PPARγ [2]): able to bind and activate PPARγ

SMILES: O=C1C[C@@H](c2ccc(O)cc2)Oc2cc(O)cc(O)c21 [naringenin, reference compound]
proliferation of preadipocytes (3T3-L1): inhibit proliferation of preadipocytes

SMILES: O=c1c(-c2ccc(O)cc2)coc2cc(O)cc(O)c12 [genistein]
concentration at which stimulatory effects on bone formation were found [3]: 0.001 µM | concentrations at which inhibitory effects on bone formation were observed [3]: above 4 μM | serum genistein [4]: ~10 µM | effect on uterine weight [5, 13]: negative impact on uterine weight | response on retention of bone mass [5, 13]: lower response | dosages with positive effect on the retention of bone mass ([5]; ovariectomised, lactating rats): 6.2-19.7 μmole genistein per kg bodyweight per day | concentration range of inhibition of p42 and p44 MAPK activity (p42 and p44 MAPK): micromolar range | pKi (PPARγ [1]): 5.24 | concentrations of increased adipocyte numbers (KS483 cells): ≥ 10 µM | PPAR-γ expression (3T3-L1; added to 2-day postconfluent preadipocytes at the induction of differentiation): inhibit PPAR-γ expression | proliferation of preadipocytes (3T3-L1): inhibit proliferation of preadipocytes | plasma genistein level above which estrogen receptors may be activated [6]: above 0.02 μM | concentrations with an increase in adipocyte numbers (mouse bone marrow cells): above 4 μM | plasma concentrations at which osteogenesis is stimulated and adipogenesis is inhibited [7]: 0.02 to 3 µM | genistein level above which the PPARγ receptor is bound/activated (PPARγ [8]): above 4 μM | concentration of maximal stimulatory effect on ALP activity, nodule formation and Ca deposition (KS 483 cells; KS 483 cells, 21 days): 1 µM | concentrations of inhibitory effects on ALP activity, nodule formation and Ca deposition (KS 483 cells; KS 483 cells, 21 days): ≥ 25 µM | bone formation by mRNA expression of Cbfal, osteocalcin and PTH/PTHrP receptor (KS 483 cells; genistein 1 μM): increase of bone formation | bone formation by mRNA expression of Cbfal, osteocalcin and PTH/PTHrP receptor (KS 483 cells; genistein 25 μM): decrease of bone formation | PPARγ activity (PPARγ [2]; concentration of 10 μM): not stimulate PPARγ activity | D/M induced adipogenesis (3T3-L1 cels; 3.3 μM, lowest concentration tested): weak inhibitory influence | D/M induced adipogenesis (3T3-L1 cels; 100 μM): effectively abolishes adipogenic conversion | D/M induced adipogenesis (3T3-L1 cels; 10 and 33 μM): marked inhibition of adipogenesis | concentrations of inhibitory effects on bone formation [9]: ≥ 25 µM | concentration with an increase in adipocyte numbers [10]: 10 µM | concentration at which PPRE reporter activity reaches the maximal level (human PPARγ2; KS483 cells): 50 µM | effect of co-transfection of ERα on PPRE reporter activity (human PPARγ2; KS483 cells exposed to genistein): down regulation of PPRE reporter activity | concentration at which ERE reporter activity reaches the maximal level ([11]; KS483 cells): 50 µM | effect of co-transfection of PPARγ2 on ERE reporter activity ([11]; KS483 cells exposed to the same concentrations of genistein): decreased ERE reporter activity | plasma concentration of genistein ([12]; Japanese who consume high amounts of soy products): ~5 µM | plasma concentration of genistein ([12]; humans consuming diets without soy): less than 20 nM

Reference: US20050090457A1, “Method of treating mammals with genistein and/or genistein analogues” (N.V. NUTRICIA, priority 2002, published 2005)
